# Several values for one entry are separate records, joined by “and”; a condition that tells them apart may be missing. Equal values may be shown once. Ends that are not written are not given here.
# Columns and labels:
# [1] = tested on: orthotopic 4T1 breast tumors; test: Tumor-infiltrating CD8+ T lymphocytes, Tregs and MDSCs (flow cytometry); format: in vivo, female BALB/c mice; details: for CD3+CD8+ T cells (%) in tumor / CD11b+Gr1+ MDSCs (%) in tumor / Tregs (%) in CD4+ T cells: Supplementary Fig. 16a; for intratumoral Tregs and MDSCs: three i.v. cycles days 7, 14, 21, day 28, no PDT
# Description: 4T1 cells (1 × 10^6 cells) were injected into the third mammary fat pad of female BALB/c mice (6–8-week). When tumor volumes reached nearly […] on day 7 after tumor inoculation, mice were randomly divided into 8 groups (n = 8 per group). For four groups without laser irradiation (−), mice were intravenously injected with the following samples: (1) saline on day 7, 14, 21, and 28, (2) P-PS on day 7, 14, 21, and 28, (3) P-BS-PS on day 7, 14, 21, and 28, or (4) P-BS-CM1 on day 7, 14, 21, and 28, followed by P-PS-CM2 on day 8, 15, 22, and 29 (5 mg/kg BS equivalence, CM1:CM2 1:1 mol%, 2.5 mg/kg PS equivalence), respectively. For four groups with laser irradiation (+), mice were treated with the same regimens and irradiated at 650 nm laser (580 mW/cm^2, 5 min) on day 9, 16, 23 and 30. Tumor volumes and mice survivals were recorded every other day. For the investigation of immune response and lung metastasis, 4T1 tumor-bearing female BALB/c mice (6–8-week, tumor volume~100 mm^3) were randomly divided into 8 groups (n = 5 per group) and given three rounds of above treatments. On day 28, lungs and tumors were harvested. lungs were fixed with Bouin’s solution. The pulmonary metastatic nodules were counted and analyzed by hematoxylin-eosin staining. Single-cell suspensions of tumor tissues were stained with anti-CD45-PerCP/Cy5.5 (1:300 dilution) and anti-calreticulin recombinant rabbit monoclonal antibody (1:500 dilution) at 4 °C for 1 h, and then stained with goat anti-rabbit IgG H&L Alexa Fluor® 647 (1:1000 dilution, 4 °C, 45 min), followed by flow cytometry analysis. ATP and HMGB1 concentrations in the supernatant of cell suspension were measured using a luciferase-based ATP assay kit and a mouse HMGB1 ELISA kit, respectively. Single-cell suspensions of tumors were stained with FITC anti-mouse CD3 antibody (1:300 dilution), PerCP/Cyanine5.5 anti-mouse CD4 antibody (1:300 dilution), anti-CD8α-APC (1:300 dilution), and anti-Foxp3-PE (1:300 dilution) for flow cytometry analysis of T cell subtypes (CD8^+ T cells, CD4^+ effector T cells, and Foxp3^+ regulatory T cells), and stained with PE anti-mouse/human CD11b antibody (1:300 dilution) and FITC anti-mouse Ly-6G/Ly-6C (Gr-1) antibody (1:300 dilution) for flow cytometry analysis of MDSCs (CD11b^+Gr1^+). Cytotoxic T cells in tumor tissues were investigated with immunofluorescent staining of IFN-γ and flow cytometry analysis using anti-IFN-γ-PE (1:300 dilution). For CD8-depletion assay, 4T1 tumor-bearing female BALB/c mice (6–8-week, tumor volume~100 mm^3) were randomly divided into 3 groups (n = 8 per group). Mice were intravenously given four doses of P-BS-CM1 on day 7, 14, 21 and 28, combined with P-PS-CM2 on day 8, 15, 22 and 29 (5 mg/kg BS equivalence, CM1:CM2 1:1 mol%, 2.5 mg/kg PS equivalence) in the presence or absence of InvivoMab anti-mouse CD8α (100 μg/mice). Mice were irradiated at 650 nm laser (580 mW/cm^2, 5 min) on day 9, 16, 23 and 30. Tumor volumes and mice survivals were recorded every other day.
# 4T1 cells = test: Wound healing assay; format: cell-based, murine; details: stimulated 4T1 cells; individual replicates, n = 3
# Description: Wound healing assay and transwell migration and invasion assay were conducted to investigate in vitro metastasis inhibition. For the wound healing assay, 4T1 cells (5 × 10^5 cells) were cultured in 12-well plates (NEST Biotechnology) as monolayer with more than 90% coverage. Sterile 200 μL pipette tips were used to scrape off the cells, generating a linear cell-free area in the middle of the well. Subsequently, cells were washed by PBS to remove debris. In the stimulated group, 4T1 cells were stimulated with CXCL12 (100 ng/mL) for 1 h. […] In the P-BS-CM1 → P-CM2 group, 4T1 cells underwent consecutive treatment with P-BS-CM1 for 1 h and P-CM2 for 1 h before CXCL12 stimulation (1 mg/mL BS equivalence, CM1:CM2, 1:1 mol%). Images of the wound were recorded by a microscope at 0 h and 24 h after CXCL12 stimulation, and the wound healing rate was calculated using Image J software. For the transwell migration and invasion assay, 4T1 cells (5 × 10^5 cells) were seeded in the non-coated upper chamber (Millipore, 8 μm) or GelNest™ matrigel (NEST Biotechnology) pre-coated upper chamber. The cells underwent the same treatment conditions as wound healing assay. After 24 h of treatment, migrated or invaded cells across the membrane were stained with 0.1% crystal violet, imaged by microscope, and quantified by absorbance at 570 nm after dissolution.
# MMP-9 and TGF-β = test: Immunofluorescence of MMP-9 and TGF-β in tumor tissues; format: in vivo, female BALB/c mice
# Description: To investigate the epithelial-mesenchymal transition process in tumor tissues, immunofluorescent staining of E-cadherin, vimentin, MMP-9, and TGF-β, along with flow cytometry analysis of E-cadherin and vimentin, were applied. For immunofluorescent staining of E-cadherin and vimentin, tumor slices were stained with CoraLite® Plus 647 anti-mouse CD324 (E-cadherin, 1:300 dilution) and anti-vimentin mouse monoclonal antibody (1:500 dilution) at 4 °C overnight, followed by staining with goat anti-mouse IgG H&L Alexa Fluor® 488 (1:1000 dilution). For flow cytometry analysis of E-cadherin and vimentin, single-cell suspensions of tumor tissues were stained with CoraLite® Plus 647 anti-mouse CD324 (E-cadherin, 1:300 dilution) or sequentially stained with anti-vimentin recombinant rabbit monoclonal antibody and goat anti-rabbit IgG H&L Alexa Fluor® 647 (1:1000 dilution), respectively. For immunofluorescent staining of MMP-9 and TGF-β, tumor slices were separately stained with MMP9 Rabbit pAb (1:500 dilution) or anti-TGF beta 1 recombinant rabbit monoclonal antibody (1:500 dilution), followed by staining with goat anti-rabbit IgG H&L Alexa Fluor® 647 (1:1000 dilution), respectively.
Substance,CD3+CD8+ T cells (%) in tumor ([1]; replicate 1 of 5) [%],CD11b+Gr1+ MDSCs (%) in tumor ([1]; replicate 1 of 5) [%],Tregs (%) in CD4+ T cells ([1]; replicate 1 of 5) [%],CD3+CD8+ T cells (%) in tumor ([1]; replicate 2 of 5) [%],CD11b+Gr1+ MDSCs (%) in tumor ([1]; replicate 2 of 5) [%],Tregs (%) in CD4+ T cells ([1]; replicate 2 of 5) [%],CD3+CD8+ T cells (%) in tumor ([1]; replicate 3 of 5) [%],CD11b+Gr1+ MDSCs (%) in tumor ([1]; replicate 3 of 5) [%],Tregs (%) in CD4+ T cells ([1]; replicate 3 of 5) [%],CD3+CD8+ T cells (%) in tumor ([1]; replicate 4 of 5) [%],CD11b+Gr1+ MDSCs (%) in tumor ([1]; replicate 4 of 5) [%],Tregs (%) in CD4+ T cells ([1]; replicate 4 of 5) [%],CD3+CD8+ T cells (%) in tumor ([1]; replicate 5 of 5) [%],CD11b+Gr1+ MDSCs (%) in tumor ([1]; replicate 5 of 5) [%],Tregs (%) in CD4+ T cells ([1]; replicate 5 of 5) [%],intratumoral Tregs and MDSCs [1],Wound healing rate (%) (4T1 cells),Relative fluorescence intensity of MMP-9 in tumor tissues (MMP-9 and TGF-β; replicate 1),Relative fluorescence intensity of TGF-β in tumor tissues (MMP-9 and TGF-β; replicate 1),Relative fluorescence intensity of MMP-9 in tumor tissues (MMP-9 and TGF-β; replicate 2),other results
LGASWHRPDKCCLGYQKRPLPA [Free BS],0.123,19.37,22.46,0.1188,18.11,19.38,0.1444,26.3,19.75,0.1085,21.21,21.91,0.1016,17.61,22.71,not affected,89.21% and 80.06% and 77.11%,143.238,172.974,142.904,Relative fluorescence intensity of TGF-β in tumor tissues (MMP-9 and TGF-β; replicate 2): 152.446; Relative fluorescence intensity of MMP-9 in tumor tissues (MMP-9 and TGF-β; replicate 3): 138.899; Relative fluorescence intensity of TGF-β in tumor tissues (MMP-9 and TGF-β; replicate 3): 165.051; Relative fluorescence intensity of MMP-9 in tumor tissues (MMP-9 and TGF-β; replicate 4): 132.502; Relative fluorescence intensity of TGF-β in tumor tissues (MMP-9 and TGF-β; replicate 4): 164.828; Relative fluorescence intensity of MMP-9 in tumor tissues (MMP-9 and TGF-β; replicate 5): 136.888; Relative fluorescence intensity of TGF-β in tumor tissues (MMP-9 and TGF-β; replicate 5): 159.609
"P-BS: HPMA copolymer-BS conjugate, ~6 BS grafts per polymer (LGASWHRPDKCCLGYQKRPLPA; not fully specified (residues 11, 12); also: about 6 peptides grafted on HPMA copolymer via cysteine-maleimide thioether links)",0.1153,12.4,15.81,0.2531,14.84,15.31,0.2407,14.8,13.12,0.1577,14.66,11.55,0.2259,15.36,16.67,moderately decreased,50.0872% and 55.1712% and 60.2636%,108.085,144.596,120.005,Relative fluorescence intensity of TGF-β in tumor tissues (MMP-9 and TGF-β; replicate 2): 130.014; Relative fluorescence intensity of MMP-9 in tumor tissues (MMP-9 and TGF-β; replicate 3): 113.377; Relative fluorescence intensity of TGF-β in tumor tissues (MMP-9 and TGF-β; replicate 3): 139.806; Relative fluorescence intensity of MMP-9 in tumor tissues (MMP-9 and TGF-β; replicate 4): 115.997; Relative fluorescence intensity of TGF-β in tumor tissues (MMP-9 and TGF-β; replicate 4): 146.777; Relative fluorescence intensity of MMP-9 in tumor tissues (MMP-9 and TGF-β; replicate 5): 97.611; Relative fluorescence intensity of TGF-β in tumor tissues (MMP-9 and TGF-β; replicate 5): 131.749
